Data as given in patent US8067408B2, “Dual pharmacophores—PDE4-muscarinic antagonistics” (priority 2008, dated 2011).
Structures can show the parent of a compound that is named as a salt.

| melting point | SMILES |
| --- | --- |
| 207 to 209 °C | CCc1nc2c(cnn2CC)c(NC2CCOCC2)c1CNC(=O)c1cccc(C(=O)O)c1 |
| 109 to 112 °C | CCc1nc2c(cnn2CC)c(NC2CCOCC2)c1CNC(=O)c1cc(C)cc(C(=O)NCc2cccc(-c3cccc(C=O)c3)c2)c1 |
| 107 to 110 °C | CCc1nc2c(cnn2CC)c(NC2CCOCC2)c1CNC(=O)c1cc(C)cc(C(=O)NCc2ccc(F)c(-c3cccc(C=O)c3)c2)c1 |
| 212 to 214 °C | CCc1nc2c(cnn2CC)c(NC2CCOCC2)c1CNC(=O)c1cc(C)cc(C(=O)NCc2ccc(Cl)c(Br)c2)c1 |
| 153 to 156 °C | CCc1nc2c(cnn2CC)c(NC2CCOCC2)c1CNC(=O)c1cc(C)cc(C(=O)NCc2ccc(Cl)c(-c3cccc(C=O)c3)c2)c1 |
| 117 to 119 °C | CCc1nc2c(cnn2CC)c(NC2CCOCC2)c1CNC(=O)c1cc(C)cc(C(=O)NCc2ccc(OC)c(-c3cccc(C=O)c3)c2)c1 |
| 117 to 119 °C | CCc1nc2c(cnn2CC)c(NC2CCOCC2)c1CNC(=O)c1cc(C)cc(C(=O)NCc2ccc(C)c(Br)c2)c1 |
| 117 to 120 °C | CCc1nc2c(cnn2CC)c(NC2CCOCC2)c1CNC(=O)c1cc(C)cc(C(=O)NCc2ccc(C)c(-c3cccc(C=O)c3)c2)c1 |
| 135 to 138 °C | CCc1nc2c(cnn2CC)c(NC2CCOCC2)c1CNC(=O)c1cccc(C(=O)NCc2ccc(C)c(-c3cccc(CN4CCNCC4)c3)c2)c1 [Example 192, N-{[1,6-Diethyl-4-(tetrahydro-2H-pyran-4-ylamino)-1H-pyrazolo[3,4-b]pyridin-5-yl]methyl}-N′-{[6-methyl-3′-(1-piperazinylmethyl)-3-biphenylyl]methyl}-1,3-benzenedicarboxamide] |
| 121 to 124 °C | CCc1nc2c(cnn2CC)c(NC2CCOCC2)c1CNC(=O)c1cccc(C(=O)NCc2ccc(C)c(-c3cccc(CN4CCN(C)CC4)c3)c2)c1 [Example 193, N-{[1,6-Diethyl-4-(tetrahydro-2H-pyran-4-ylamino)-1H-pyrazolo[3,4-b]pyridin-5-yl]methyl}-N′-({6-methyl-3′-[(4-methyl-1-piperazinyl)methyl]-3-biphenylyl}methyl)-1,3-benzenedicarboxamide] |
| 118 to 120 °C | CCc1nc2c(cnn2CC)c(NC2CCOCC2)c1CNC(=O)c1cccc(C(=O)NCc2ccc(C)c(-c3cccc(CN4CCCNCC4)c3)c2)c1 [Example 196, N-{[1,6-Diethyl-4-(tetrahydro-2H-pyran-4-ylamino)-1H-pyrazolo[3,4-b]pyridin-5-yl]methyl}-N′-{[3′-(hexahydro-1H-1,4-diazepin-1-ylmethyl)-6-methyl-3-biphenylyl]methyl}-1,3-benzenedicarboxamide] |
| 138 to 140 °C | CCc1nc2c(cnn2CC)c(NC2CCOCC2)c1CNC(=O)c1cccc(C(=O)NCc2ccc(C)c(-c3cccc(CN4C[C@@H]5C[C@H]4CN5)c3)c2)c1 [Example 197, N-({3′-[(1S,4S)-2,5-Diazabicyclo [2.2.1]hept-2-ylmethyl]-6-methyl-3-biphenylyl}methyl)-N′-{[1,6-diethyl-4-(tetrahydro-2H-pyran-4-ylamino)-1H-pyrazolo[3,4-b]pyridin-5-yl]methyl}-1,3-benzenedicarboxamide] |
| 187 to 190 °C (dec.) | CCc1nc2c(cnn2CC)c(NC2CCOCC2)c1CNC(=O)c1cccc(C(=O)NCc2ccc(F)c(-c3cccc(CN4C[C@H](C)NC[C@H]4C)c3)c2)c1 [Example 198, N-{[1,6-Diethyl-4-(tetrahydro-2H-pyran-4-ylamino)-1H-pyrazolo[3,4-b]pyridin-5-yl]methyl}-N′-[(3′-{[(2R,5S)-2,5-dimethyl-1-piperazinyl]methyl}-6-fluoro-3-biphenylyl)methyl]-1,3-benzenedicarboxamide] |
| 169 to 173 °C | CCc1nc2c(cnn2CC)c(NC2CCOCC2)c1CNC(=O)c1cccc(C(=O)NCc2ccc(F)c(-c3cccc(CN4CCN(C)CC4)c3)c2)c1 [Example 200, N-{[1,6-Diethyl-4-(tetrahydro-2H-pyran-4-ylamino)-1H-pyrazolo[3,4-b]pyridin-5-yl]methyl}-AN-({6-fluoro-3′-[(4-methyl-1-piperazinyl)methyl]-3-biphenylyl}methyl)-1,3-benzenedicarboxamide] |
| 126 to 129 °C | CCc1nc2c(cnn2CC)c(NC2CCOCC2)c1CNC(=O)c1cccc(C(=O)NCc2ccc(F)c(-c3cccc(CN(C)CCN(C)C)c3)c2)c1 [Example 206, N-{[1,6-Diethyl-4-(tetrahydro-2H-pyran-4-ylamino)-1H-pyrazolo[3,4-b]pyridin-5-yl]methyl}-N′-[(3′-{[[2-(dimethylamino)-ethyl](methyl)amino]methyl}-6-fluoro-3-biphenylyl)methyl]-1,3-benzenedicarboxamide] |

Second part, the molecule before the results:

| SMILES | melting point |
| --- | --- |
| O=C(O)c1cccc(C(=O)NCc2ccc(F)c(-c3cccc(CO)c3)c2)c1 | 169 to 171 °C |
| CCc1nc2c(cnn2CC)c(NC2CCOCC2)c1CNC(=O)c1cccc(C(=O)NCc2ccc(F)c(-c3cccc(CN4C[C@@H]5C[C@H]4CN5C(=O)OC(C)(C)C)c3)c2)c1 | 119 to 123 °C |
| CCc1nc2c(cnn2CC)c(NC2CCOCC2)c1CNC(=O)c1cccc(C(=O)NCc2ccc(F)c(-c3cccc(CN4CCN[C@@H](C)C4)c3)c2)c1 (as salt: TFA) [Example 205, N-{[1,6-Diethyl-4-(tetrahydro-2H-pyran-4-ylamino)-1H-pyrazolo[3,4-b]pyridin-5-yl]methyl}-N′-[(6-fluoro-3′-{[(3S)-3-methyl-1-piperazinyl]methyl}-3-biphenylyl)methyl]-1,3-benzenedicarboxamide] | 100 to 113 °C |
| CCc1nc2c(cnn2CC)c(NC2CCOCC2)c1CNC(=O)c1cccc(C(=O)NCc2ccc(OC)c(-c3cccc(CN4C[C@@H]5C[C@H]4CN5)c3)c2)c1 [Example 194, N-{[3′-[(1S,4S)-2,5-Diazabicyclo [2.2.1]hept-2-ylmethyl]-6-(methyloxy)-3-biphenylyl]methyl}-N′-{[1,6-diethyl-4-(tetrahydro-2H-pyran-4-ylamino)-1H-pyrazolo[3,4-b]pyridin-5-yl]methyl}-1,3-benzenedicarboxamide] | 129 to 131 °C |
| CCc1nc2c(cnn2CC)c(NC2CCOCC2)c1CNC(=O)c1cccc(C(=O)NCc2ccc(OC)c(-c3cccc(CN4CCCNCC4)c3)c2)c1 [Example 195, N-{[1,6-Diethyl-4-(tetrahydro-2H-pyran-4-ylamino)-1H-pyrazolo[3,4-b]pyridin-5-yl]methyl}-N′-{[3′-(hexahydro-1H-1,4-diazepin-1-ylmethyl)-6-(methyloxy)-3-biphenylyl]methyl}-1,3-benzenedicarboxamide] | 143 to 147 °C |
| CCc1nc2c(cnn2CC)c(NC2CCOCC2)c1CNC(=O)c1cccc(C(=O)NCc2ccc(F)c(-c3cccc(CN4CCCCC4)c3)c2)c1 [Example 199, N-{[1,6-Diethyl-4-(tetrahydro-2H-pyran-4-ylamino)-1H-pyrazolo[3,4-b]pyridin-5-yl]methyl}-N′-{[6-fluoro-3′-(1-piperidinylmethyl)-3-biphenylyl]methyl}-1,3-benzenedicarboxamide] | 128 to 131 °C |
| CCc1nc2c(cnn2CC)c(NC2CCOCC2)c1CNC(=O)c1cccc(C(=O)NCc2ccc(F)c(-c3cccc(CN4CCNC(=O)C4)c3)c2)c1 [Example 201, N-{[1,6-Diethyl-4-(tetrahydro-2H-pyran-4-ylamino)-1H-pyrazolo[3,4-b]pyridin-5-yl]methyl}-N′-({6-fluoro-3′-[(3-oxo-1-piperazinyl)methyl]-3-biphenylyl}methyl)-1,3-benzenedicarboxamide] | 147 to 150 °C |
| CCc1nc2c(cnn2CC)c(NC2CCOCC2)c1CNC(=O)c1cccc(C(=O)NCc2ccc(F)c(-c3cccc(CN4CCN(CC)CC4)c3)c2)c1 [Example 202, N-{[1,6-Diethyl-4-(tetrahydro-2H-pyran-4-ylamino)-1H-pyrazolo[3,4-b]pyridin-5-yl]methyl}-N′-({3′-[(4-ethyl-1-piperazinyl)methyl]-6-fluoro-3-biphenylyl}methyl)-1,3-benzenedicarboxamide] | 155 to 158 °C |
| CCc1nc2c(cnn2CC)c(NC2CCOCC2)c1CNC(=O)c1cccc(C(=O)NCc2ccc(F)c(-c3cccc(CN4CCN(C(C)C)CC4)c3)c2)c1 [Example 203, N-{[1,6-Diethyl-4-(tetrahydro-2H-pyran-4-ylamino)-1H-pyrazolo[3,4-b]pyridin-5-yl]methyl}-N′-[(6-fluoro-3′-{[4-(1-methylethyl)-1-piperazinyl]methyl}-3-biphenylyl)methyl]-1,3-benzenedicarboxamide] | 165 to 169 °C |
| CCc1nc2c(cnn2CC)c(NC2CCOCC2)c1CNC(=O)c1cccc(C(=O)NCc2ccc(F)c(-c3cccc(CN4CCCNCC4)c3)c2)c1 [Example 204, N-{[1,6-Diethyl-4-(tetrahydro-2H-pyran-4-ylamino)-1H-pyrazolo[3,4-b]pyridin-5-yl]methyl}-N′-{[6-fluoro-3′-(hexahydro-1H-1,4-diazepin-1-ylmethyl)-3-biphenylyl]methyl}-1,3-benzenedicarboxamide] | 145 to 148 °C |
| CCc1nc2c(cnn2CC)c(NC2CCOCC2)c1CNC(=O)c1cccc(C(=O)NCc2ccc(F)c(-c3cccc(CN4C[C@@H]5C[C@H]4CN5)c3)c2)c1 [Example 207, N-({3′-[(1S,4S)-2,5-Diazabicyclo [2.2.1]hept-2-ylmethyl]-6-fluoro-3-biphenylyl}methyl)-N′-{[1,6-diethyl-4-(tetrahydro-2H-pyran-4-ylamino)-1H-pyrazolo[3,4-b]pyridin-5-yl]methyl}-1,3-benzenedicarboxamide] | 129 to 133 °C |
| CCc1nc2c(cnn2CC)c(NC2CCOCC2)c1CNC(=O)c1cccc(C(=O)NCc2ccc(OC)c(-c3cccc(CN4CCNCC4)c3)c2)c1 [Example 209, N-{[1,6-Diethyl-4-(tetrahydro-2H-pyran-4-ylamino)-1H-pyrazolo[3,4-b]pyridin-5-yl]methyl}-N′-{[6-(methyloxy)-3′-(1-piperazinylmethyl)-3-biphenylyl]methyl}-1,3-benzenedicarboxamide] | 138 to 140 °C |
